According to the NIST ThermoML archive (doi:10.1021/je4008052):
Where “and” joins values, the source holds several entries; their conditions need not be identical. Equal values may be shown once. ± gives the expanded uncertainty stated by the source.

Details: Liquid, Gas chromatography

CCCCCCCC/C=C/CCCCCCCCCCCCC [(E)-9-tricosene]
Details | vapor or sublimation pressure
298.15 K | 1.041e-07 kPa and 1.013e-07 kPa
308.15 K | 4.621e-07 kPa and 4.52e-07 kPa
318.15 K | 1.828e-06 kPa and 1.795e-06 kPa
328.15 K | 6.514e-06 kPa and 6.421e-06 kPa
338.15 K | 2.089e-05 kPa and 2.112e-05 kPa
358.15 K | 0.0001722 ± 0.0002 kPa and 0.000173 ± 0.0002 kPa
368.15 K | 0.0004428 ± 0.0002 kPa and 0.0004438 ± 0.0002 kPa
378.15 K | 0.001067 ± 0.00021 kPa
388.15 K | 0.002425 ± 0.00026 kPa and 0.002419 ± 0.00026 kPa
398.15 K | 0.005195 ± 0.00042 kPa and 0.00522 ± 0.00042 kPa
408.15 K | 0.01062 ± 0.00082 kPa and 0.01069 ± 0.00083 kPa
418.15 K | 0.02075 ± 0.0016 kPa and 0.02093 ± 0.0016 kPa
428.15 K | 0.0389 ± 0.003 kPa and 0.0393 ± 0.003 kPa
438.15 K | 0.07017 ± 0.0054 kPa and 0.07101 ± 0.0055 kPa
448.15 K | 0.1222 ± 0.0095 kPa and 0.1238 ± 0.0096 kPa
458.15 K | 0.2059 ± 0.016 kPa and 0.209 ± 0.016 kPa
468.15 K | 0.3368 ± 0.026 kPa and 0.3423 ± 0.027 kPa
478.15 K | 0.5356 ± 0.042 kPa and 0.5451 ± 0.042 kPa
488.15 K | 0.83 ± 0.064 kPa and 0.8458 ± 0.066 kPa
498.15 K | 1.256 ± 0.097 kPa and 1.281 ± 0.099 kPa
508.15 K | 1.858 ± 0.14 kPa and 1.898 ± 0.15 kPa
518.15 K | 2.693 ± 0.21 kPa and 2.753 ± 0.21 kPa
528.15 K | 3.828 ± 0.3 kPa and 3.918 ± 0.3 kPa
538.15 K | 5.344 ± 0.41 kPa and 5.475 ± 0.42 kPa
548.15 K | 7.336 ± 0.57 kPa and 7.523 ± 0.58 kPa
558.15 K | 9.914 ± 0.77 kPa and 10.18 ± 0.79 kPa
568.15 K | 13.2 ± 1 kPa and 13.56 ± 1.1 kPa
578.15 K | 17.34 ± 1.3 kPa and 17.82 ± 1.4 kPa
588.15 K | 22.48 ± 1.7 kPa and 23.12 ± 1.8 kPa
598.15 K | 28.79 ± 2.2 kPa and 29.64 ± 2.3 kPa
608.15 K | 36.46 ± 2.8 kPa and 37.56 ± 2.9 kPa
618.15 K | 45.67 ± 3.5 kPa and 47.09 ± 3.6 kPa
628.15 K | 56.64 ± 4.4 kPa and 58.44 ± 4.5 kPa
638.15 K | 69.59 ± 5.4 kPa and 71.83 ± 5.6 kPa
648.15 K | 84.72 ± 6.6 kPa and 87.52 ± 6.8 kPa
655 K | 99.7 ± 7.7 kPa
656 K | 98.29 ± 7.6 kPa

CCCCCCCC/C=C\CCCCCCCCCCCCC [(Z)-tricos-9-ene]
Details | vapor or sublimation pressure
298.15 K | 1.146e-07 kPa and 1.205e-07 kPa
308.15 K | 5.055e-07 kPa and 5.324e-07 kPa
318.15 K | 1.987e-06 kPa and 2.096e-06 kPa
328.15 K | 7.042e-06 kPa and 7.434e-06 kPa
358.15 K | 0.0001951 ± 0.0002 kPa and 0.0001844 ± 0.0002 kPa
368.15 K | 0.0004985 ± 0.0002 kPa and 0.0004708 ± 0.0002 kPa
378.15 K | 0.001195 ± 0.00022 kPa and 0.001128 ± 0.00021 kPa
388.15 K | 0.0027 ± 0.00028 kPa and 0.002546 ± 0.00027 kPa
398.15 K | 0.00545 ± 0.00043 kPa and 0.005782 ± 0.00046 kPa
408.15 K | 0.01111 ± 0.00086 kPa and 0.01179 ± 0.00091 kPa
418.15 K | 0.02163 ± 0.0017 kPa and 0.02297 ± 0.0018 kPa
428.15 K | 0.04041 ± 0.0031 kPa and 0.04294 ± 0.0033 kPa
438.15 K | 0.07269 ± 0.0056 kPa and 0.07727 ± 0.006 kPa
448.15 K | 0.1262 ± 0.0098 kPa and 0.1343 ± 0.01 kPa
458.15 K | 0.2121 ± 0.016 kPa and 0.2258 ± 0.017 kPa
468.15 K | 0.346 ± 0.027 kPa and 0.3684 ± 0.029 kPa
478.15 K | 0.5489 ± 0.043 kPa and 0.5848 ± 0.045 kPa
488.15 K | 0.8487 ± 0.066 kPa and 0.9046 ± 0.07 kPa
498.15 K | 1.281 ± 0.099 kPa and 1.366 ± 0.11 kPa
508.15 K | 1.891 ± 0.15 kPa and 2.018 ± 0.16 kPa
518.15 K | 2.735 ± 0.21 kPa and 2.92 ± 0.23 kPa
528.15 K | 3.88 ± 0.3 kPa and 4.144 ± 0.32 kPa
538.15 K | 5.406 ± 0.42 kPa and 5.777 ± 0.45 kPa
548.15 K | 7.406 ± 0.57 kPa and 7.919 ± 0.61 kPa
558.15 K | 9.989 ± 0.77 kPa and 10.69 ± 0.83 kPa
568.15 K | 13.28 ± 1 kPa and 14.21 ± 1.1 kPa
578.15 K | 17.41 ± 1.4 kPa and 18.64 ± 1.4 kPa
588.15 K | 22.53 ± 1.8 kPa and 24.14 ± 1.9 kPa
598.15 K | 28.81 ± 2.2 kPa and 30.88 ± 2.4 kPa
608.15 K | 36.42 ± 2.8 kPa and 39.06 ± 3 kPa
618.15 K | 45.55 ± 3.5 kPa and 48.88 ± 3.8 kPa
628.15 K | 56.41 ± 4.4 kPa and 60.56 ± 4.7 kPa
638.15 K | 69.19 ± 5.4 kPa and 74.32 ± 5.8 kPa
648.15 K | 84.12 ± 6.5 kPa and 90.4 ± 7 kPa
656 K | 104.81 ± 8.1 kPa
658.15 K | 101.4 ± 7.9 kPa
